One assay concerns the target T1, human SGLT1 (Homo sapiens, UniProt P13866).
T1 construct: expressed in transfected cells; host or cells: CHO-K1
T1 sequence (P13866 1-664): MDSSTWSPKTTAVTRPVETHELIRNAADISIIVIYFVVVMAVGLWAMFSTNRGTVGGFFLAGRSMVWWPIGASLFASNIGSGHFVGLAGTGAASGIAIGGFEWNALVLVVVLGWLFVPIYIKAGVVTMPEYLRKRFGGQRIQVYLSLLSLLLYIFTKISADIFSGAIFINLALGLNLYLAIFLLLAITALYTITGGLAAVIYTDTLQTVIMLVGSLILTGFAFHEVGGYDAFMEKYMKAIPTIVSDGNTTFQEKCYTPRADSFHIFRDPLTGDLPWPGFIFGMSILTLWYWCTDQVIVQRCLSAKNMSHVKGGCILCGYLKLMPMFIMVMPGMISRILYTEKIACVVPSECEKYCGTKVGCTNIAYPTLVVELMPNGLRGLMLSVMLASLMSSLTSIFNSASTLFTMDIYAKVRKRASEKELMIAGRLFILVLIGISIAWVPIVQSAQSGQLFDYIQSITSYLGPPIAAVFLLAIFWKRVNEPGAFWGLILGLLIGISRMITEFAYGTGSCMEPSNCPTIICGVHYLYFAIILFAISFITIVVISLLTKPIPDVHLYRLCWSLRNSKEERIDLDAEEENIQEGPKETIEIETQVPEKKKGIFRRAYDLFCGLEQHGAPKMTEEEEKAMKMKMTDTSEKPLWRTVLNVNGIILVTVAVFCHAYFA
Briefly: SGLT1 assay: Na-dependent 14C-AMG uptake in CHO-K1 cells stably expressing human SGLT1. Conditions: for IC50: 500 μM AMG, 2 hours at 37° C. In kind it is cell-based. How it is done:
(§1) SGLT1 and SGLT2 were cloned in form of cDNA from human small intestine (Genbank M24847), and from human kidney (Genbank M95549), respectively. Subsequently, each full cDNA was subcloned into pcDNA with each construct's integrity verified through follow-on sequencing. To generate CHO-K1 cells that stably express human SGLT1 or human SGLT2, CHO-K1 cells were transfected using DMRIE-C reagent (Life Technologies, Gaithersburg, Md.). Transfected cells were then selected in the presence of 500 μg/ml of the Geneticin (G418 Cellgro Catalog No. 30234-CI)
(§2) Individual clones were then characterized using the following cell-based assay for sodium-dependent glucose transport:
(§3) Inhibition of SGLT1 and SGLT2 activity was assessed in CHO K1 cells stably expressing either human SGLT1 or SGLT2, using the SGLT specific glucose analog methyl-glucopyranoside (Sigma Catalog No. M-9376). Cells were plated (45,000 cells/well) in white wall 96-well plates (COSTAR, Cat#3903) for 24 hours in growth medium, then a final concentration of 10 mM Na-Butyrate (ALDRICH Cat#30341-0) was added. The cells were incubated for 24 hours. On the day of the assay, cells were rinsed and treated with test compounds (at concentrations of 0.001 μM to 10 μM) in assay buffer (50 mM HEPES, 20 mM Tris base, 5 mM KCl, 1 mM MgCl2, 1 mM CaCl2 and 137 mM NaCl, pH 7.4) for 10 minutes. Cells were then incubated with ^14C-a-methyl-d-glucopyranoside (AMG, Amersham Catalog No. CFB 76), using 0.07 μCi per well in 500 μM AMG final concentration. The cells were incubated for 2 hours at 37° C. with 5% CO2 and washed two times with ice-cold Phosphate Buffer Solution (Cellgro Catalog No. 21030-CV). The cells were then solubilized by adding 60 μl of MICROSCINT™20 and the Na-dependent ^14C-AMG uptake was quantified by measuring radioactivity. Plates were counted in a TopCount (Packard, Meriden, Conn.)

The next assay deals with T2, human SGLT2 (Homo sapiens, UniProt P31639).
T2 construct: expressed in transfected cells; host or cells: CHO-K1
T2 sequence (P31639 1-672): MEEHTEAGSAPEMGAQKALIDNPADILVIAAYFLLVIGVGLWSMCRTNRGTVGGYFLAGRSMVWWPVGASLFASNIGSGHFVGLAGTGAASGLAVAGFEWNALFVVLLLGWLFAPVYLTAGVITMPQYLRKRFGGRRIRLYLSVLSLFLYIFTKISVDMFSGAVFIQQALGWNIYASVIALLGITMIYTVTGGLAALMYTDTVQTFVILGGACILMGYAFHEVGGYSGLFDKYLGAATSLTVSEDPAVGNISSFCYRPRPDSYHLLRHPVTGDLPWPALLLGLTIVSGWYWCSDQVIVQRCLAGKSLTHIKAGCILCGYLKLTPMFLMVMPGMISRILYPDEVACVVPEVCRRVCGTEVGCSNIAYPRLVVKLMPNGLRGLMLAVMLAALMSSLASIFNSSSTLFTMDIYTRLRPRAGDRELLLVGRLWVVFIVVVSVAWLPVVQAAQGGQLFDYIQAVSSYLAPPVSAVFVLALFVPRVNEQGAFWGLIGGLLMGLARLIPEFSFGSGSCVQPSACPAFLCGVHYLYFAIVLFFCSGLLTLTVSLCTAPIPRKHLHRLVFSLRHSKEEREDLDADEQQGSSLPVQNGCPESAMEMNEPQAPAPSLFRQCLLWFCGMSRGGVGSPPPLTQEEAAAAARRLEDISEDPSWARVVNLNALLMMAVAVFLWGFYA
Briefly: SGLT2 assay: Na-dependent 14C-AMG uptake in CHO-K1 cells stably expressing human SGLT2. In kind it is cell-based. Conditions: for IC50: 500 μM AMG, 2 hours at 37° C. How it is done: as §1, §2, §3

From US10815210B2, “Benzocyclobutane derivatives useful as dual SGLT1 / SGLT2 modulators” (Janssen Pharmaceutica NV, priority 2016, dated 2020) come the findings set out here.

As usually defined, the inhibition is how much of the control response was suppressed. A low value points to a response near the control. What is called IC50 is the concentration needed to halve the response being measured.

As to `COc1cc(C#N)c(Cc2ccc3c(c2)CC3)cc1[C@@H]1O[C@H](CO)[C@@H](O)[C@H](O)[C@H]1O` [Compound 18, 2-((1,2-dihydrocyclobutabenzen-4-yl)methyl)-5-methoxy-4-((2S,3R,4R,5S,6R)-3,4,8-trihydroxy-6-(hydroxymethyl)-tetrahydro-2H-pyran-2-yl)benzonitrile], testing at 0.3 µM against human SGLT1 gave an inhibition of 25%. Moreover, the inhibition at 0.03 µM at human SGLT2 came out at 74%.
With `CCc1cc(O)c([C@@H]2O[C@H](CO)[C@@H](F)[C@H](O)[C@H]2O)cc1Cc1ccc2c(c1)CC2` [Compound 127], the results for the IC50 on human SGLT1 and on human SGLT2 were 1 nM and 2 nM, respectively.
Turning to `[2H]C1([2H])Cc2ccc(Cc3cc([C@@H]4O[C@H](CO)[C@@H](O)[C@H](O)[C@H]4O)ccc3Cl)cc21` (single isomer, unassigned) [Compound 62], the IC50 on human SGLT1 is 168 nM; against human SGLT2, 9 nM.
With `CCOc1cc(C)c(Cc2ccc3c(c2)CC3)cc1[C@@H]1O[C@H](CO)[C@@H](O)[C@H](O)[C@H]1O` [Compound 113], the half-inhibitory concentration (IC50) was 84 nM against human SGLT1 and 1 nM against human SGLT2.
With `Cc1ccc([C@@H]2O[C@H](CO)C(F)(F)[C@H](O)[C@H]2O)cc1Cc1ccc2c(c1)CC2` [Compound 91, (2S,3R,4R,6R)-2-(3-(bicyclo[4.2.0]octa-1(6),2,4-trien-3-ylmethyl)-4-methylphenyl)-5,5-difluoro-6-(hydroxymethyl)tetrahydro-2H-pyran-3,4-diol], the half-maximal inhibitory concentration (IC50) was 49 nM against human SGLT1 and 1 nM at human SGLT2.
For the compound `CCOc1cc(CC)c(Cc2ccc3c(c2)CC3)cc1[C@@H]1O[C@H](CO)[C@@H](O)[C@H](O)[C@H]1O` [Compound 105], the IC50 against human SGLT1 turned out to be 32 nM; at human SGLT2 it was 1 nM.
With `CCOc1cc(OC)c(Cc2ccc3c(c2)CC3)cc1[C@@H]1O[C@H](CO)[C@@H](O)[C@H](O)[C@H]1O` [Compound 114], the half-inhibitory concentration (IC50) is 37 nM against human SGLT1 and 2 nM against human SGLT2.
For `OC[C@H]1O[C@@H](c2cc(Cc3ccc4c(c3)CC4)c(Cl)cc2O)[C@H](O)[C@@H](O)C1(F)F` [Compound 102], the IC50 at human SGLT1 was determined as 12 nM; at human SGLT2 it was 2 nM.
`CCc1cc(OC(F)F)c([C@@H]2O[C@H](CO)[C@@H](O)[C@H](O)[C@H]2O)cc1Cc1ccc2c(c1)CC2` [Compound 122] returned an inhibition at 0.3 µM against human SGLT1 of 53%. On human SGLT2, this compound registered an inhibition at 0.03 µM of 55.5%.
With `[2H]C1([2H])Cc2ccc(Cc3cc([C@@H]4O[C@H](CO)[C@@H](O)[C@H](O)[C@H]4O)c(F)cc3OC)cc21` [Compound 72, (2S,3R,4R,5S,6R)-2-{5-[(8,8-dideuterio)bicyclo[4.2.0]octa-1(6),2,4-trien-3-ylmethyl]-2-fluoro-4-methoxyphenyl}-6-(hydroxymethyl)oxane-3,4,5-triol], the IC50 came to 24 nM against human SGLT1 and 3 nM against human SGLT2.
Taken in the same sequence, the figures for `Cc1cc(O)c([C@@H]2O[C@H](CO)[C@@H](F)[C@H](O)[C@H]2O)cc1Cc1ccc2c(c1)CC2` [Compound 130] were 15 nM and 1 nM.
At human SGLT1, `OC[C@H]1O[C@@H](c2cc(Cc3ccc4c(c3)CC4)c(Cl)cc2OC(F)F)[C@H](O)[C@@H](O)[C@@H]1O` [Compound 37, (2S,3R,4R,5S,6R)-2-(4-chloro-2-(difluoromethoxy)-5-((1,2-dihydrocyclobutabenzen-4-yl)methyl)phenyl)-6-(hydroxymethyl)-tetrahydro-2H-pyran-3,4,5-triol] returned an inhibition at 0.3 µM of 20%. The compound also showed an inhibition at 0.03 µM at human SGLT2 of 84%.
Take `CCc1cc(OC)c([C@@H]2O[C@H](CO)[C@@H](O)[C@H](O)[C@H]2O)cc1Cc1ccc2c(c1)CC2` [Compound 13, (2S,3R,4R,5S,6R)-2-(5-((1,2-dihydrocyclobutabenzen-4-yl)methyl)-4-ethyl-2-methoxyphenyl)-6-(hydroxymethyl)-tetrahydro-2H-pyran-3,4,5-triol]: the IC50 against human SGLT1 was found to be 32 nM; at human SGLT2, 1 nM.
As to `OC[C@H]1O[C@@H](c2cccc(Cc3ccc4c(c3)CC4)c2)[C@H](O)[C@@H](O)[C@@H]1O` [Compound 24, (2S,3R,4R,5S,6R)-2-(3-((1,2-dihydrocyclobutabenzen-4-yl)methyl)phenyl)-6-(hydroxymethyl)-tetrahydro-2H-pyran-3,4,5-triol], the inhibition at 0.3 µM on human SGLT1 came to 5%. At human SGLT2, 0.03 µM produced 23% inhibition.
In the case of `OC[C@H]1O[C@@H](c2ccc(F)c(Cc3ccc4c(c3)CC4)c2)[C@H](O)[C@@H](O)[C@@H]1O` [Compound 101], the inhibition at 0.3 µM against human SGLT1 came out at 22%. At human SGLT2, this compound displayed an inhibition at 0.03 µM of 70%.
For the compound `COc1ccc([C@@H]2O[C@H](CO)[C@@H](O)[C@H](O)[C@H]2O)cc1Cc1ccc2c(c1)CC2` [Compound 3, (2S,3R,4R,5S,6R)-2-(3-((1,2-dihydrocyclobutabenzen-4-yl)methyl)-4-methoxyphenyl)-6-(hydroxymethyl)-tetrahydro-2H-pyran-3,4,5-triol], the IC50 on human SGLT1 amounted to 39 nM; on human SGLT2 it was 3 nM.
The like results for `COc1cc(OC)c([C@@H]2O[C@H](CO)[C@@H](F)[C@H](O)[C@H]2O)cc1Cc1ccc2c(c1)CC2` [Compound 136] were, in that order, 9 nM and 1 nM.
`Cc1cc(F)c([C@@H]2O[C@H](CO)[C@@H](O)[C@H](O)[C@H]2O)cc1Cc1ccc2c(c1)CC2` [Compound 29, (2S,3R,4R,5S,6R)-2-(5-[bicyclo[4.2.0]octa-1,3,5-trien-3-ylmethyl]-2-fluoro-4-methylphenyl)-6-(hydroxymethyl)oxane-3,4,5-triol]: the results for the IC50 on human SGLT1 and against human SGLT2 were 92 nM and 3 nM, respectively.
On to `[2H]C1([2H])Cc2cc(Cc3cc([C@@H]4O[C@H](CO)[C@@H](O)[C@H](O)[C@H]4O)ccc3CC)ccc21` [Compound 87, (2S,3R,4R,5S,6R)-2-(3-((1,1-dideuterium-1,2-dihydrocyclo-butabenzen-4-yl)methyl)-4-ethylphenyl)-6-(hydroxymethyl)-tetrahydro-2H-pyran-3,4,5-triol], for which the concentration for half-maximal inhibition (IC50) against human SGLT1 is 18 nM; against human SGLT2 it was 2 nM.
On human SGLT1, `N#Cc1ccc([C@@H]2O[C@H](CO)[C@@H](O)[C@H](O)[C@H]2O)cc1Cc1ccc2c(c1)CC2` [Compound 16, 2-((1,2-dihydrocyclobutabenzen-4-yl)methyl)-4-((2S,3R,4R,5S,6R)-3,4,5-trihydroxy-6-(hydroxymethyl)-tetrahydro-2H-pyran-2-yl)benzonitrile] yielded an inhibition at 0.3 µM of 0%. On human SGLT2, this compound returned an inhibition at 0.03 µM of 43%.
